In series [1] the target is T1, human A1 adenosine receptor (hA1R) (Homo sapiens, UniProt P30542).
T1 sequence (P30542 1-326): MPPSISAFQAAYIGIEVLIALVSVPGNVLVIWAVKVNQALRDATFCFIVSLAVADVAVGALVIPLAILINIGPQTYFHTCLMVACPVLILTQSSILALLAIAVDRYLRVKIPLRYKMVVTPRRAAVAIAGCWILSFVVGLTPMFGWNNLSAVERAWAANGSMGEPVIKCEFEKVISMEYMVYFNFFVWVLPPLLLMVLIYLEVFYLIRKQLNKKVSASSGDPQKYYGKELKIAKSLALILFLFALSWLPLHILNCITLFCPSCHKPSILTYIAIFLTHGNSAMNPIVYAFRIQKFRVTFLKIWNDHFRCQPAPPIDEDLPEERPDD
In words: cAMP inhibition assay, allosteric mode with adenosine as orthosteric agonist, CHO-K1-hA1R cells; operational allosteric ternary complex model. It is filed as cell-based. Also noted: host or cells: CHO-K1. To be noted: for Logαβ (binding and activation cooperativity) / LogτB (operational efficacy as allosteric agonist) / αβ / τB / Kb / Kd: orthosteric agonist adenosine; for αβ / τB: antilogarithm; for Kb: antilogarithm of logKB; for Kd: operational model fit, read-out: logKB (converted); for Allosteric modulation of adenosine-induced cAMP inhibition (shift of concentration-response curve): test compound at 20 µM.

Series [2] concerns rat A1 receptors. Further details: method as in PMID 30644086. To be noted: 1, 10 and 30 µM, rat A1 receptors in HEK293T cells; cited from earlier work.
For series [3], the target named is T2, human A1 receptor (Homo sapiens, UniProt P30542).
T2 construct: host or cells: CHO-K1
T2 sequence (P30542 1-326): T1 sequence (P30542 1-326)
In words: cAMP inhibition assay, allosteric mode with CPA as orthosteric agonist (DiscoverX HitHunter cAMP XS+), CHO-K1 cells overexpressing the human A1 receptor; operational allosteric ternary complex model. It is filed as cell-based. To be noted: for αβ / τB: antilogarithm; for Kb: antilogarithm of logKB; for Kd: operational model fit, read-out: logKB (converted). The protocol:
Experiments with CPA as an agonist: In experiments with CPA as an agonist, inhibition of intracellular cAMP production in response to CPA stimulation of the receptor was determined using a functional assay in CHO-K1 cells overexpressing the human A1 receptor (Eurofins DiscoverX Corporation, Fremont, CA, USA). Cells were seeded in a total volume of 20 μL into white-walled, 384-well microplates and incubated at 37 °C for the appropriate time prior to testing.
Experiments with CPA as an agonist: cAMP production was measured using the DiscoverX HitHunter cAMP XS+ assay (Eurofins DiscoverX Corporation, Fremont, CA, USA). For allosteric modulation studies, cells were pre-incubated with allosteric modulators at various concentrations, followed by induction with the agonist CPA at its EC20 concentration (i.e., the concentration eliciting 20% of the maximal response). Media were aspirated from cells and replaced with 10 μL of HBSS (10 mM HEPES). Sample stocks were diluted to prepare a 4-fold higher (4x) concentration than the final in-well concentration. Next, 5 μL of the 4x compound was added to the cells and incubated at room temperature or 37 °C for 10 min. This was followed by the addition of 5 μL of the 4x EC20 agonist solution and further incubation for 30 min at 37 °C. To stimulate intracellular cAMP production and provide a dynamic range for detecting Gi-mediated inhibition, forskolin at its EC80 was included in all experiments. The final DMSO (vehicle) concentration was 1%. After incubation with compounds, the assay signal was generated by adding 5 uL of and cAMP XS+ Ab reagent followed by 20 μL of the cAMP XS+ ED/CL lysis cocktail and then incubating for 1 h. This was followed by adding 20 μL of the cAMP XS+ EA reagent and incubating for 2 h at room temperature. Chemiluminescent signals were detected using a PerkinElmer EnVision™ instrument. Compound activity was analyzed using the CBIS data analysis suite (ChemInnovation, San Diego, CA, USA). Control dose–response curves were generated using CPA as the agonist. Data were normalized to the maximal response observed with CPA (positive control) and the minimal response observed with vehicle (1% DMSO, negative control).
The operational allosteric ternary complex model (ATCM) accounts for the ability of an allosteric ligand to modify affinity and/or efficacy and even activate a receptor independently. This model describes a simplified case for positive allosteric modulators (PAMs), where the orthosteric ligand is a full agonist.
Explanation of parameters: A = Agonist concentration; B = Allosteric modulator concentration; KB = Dissociation constant for the modulator; αβ = Allosteric coupling constant; τB = Intrinsic activity of the modulator; EC50 = Half-maximal effective concentration of the agonist; n = Hill coefficient; Emax = Maximal system response; Basal = Basal activity (response in the absence of any ligand); Span = Emax − Basal (difference between maximum and basal activity).
The response curve Y is defined as follows: Y=Basal+Span·(Part1)/(Part1+Part2) where Part1=A·KB+αβ·B+τB·B·EC50^n Part2=(EC50^n·(KB+B))^n Span=Emax−Basal

Series [4] relates to human A1 receptors. Further details: method as in PMID 30644086. To be noted: 1, 10 and 30 µM, human A1 receptors in HEK293T cells; cited from earlier work.
Details of series [5]: method as in PMID 19156843. The conditions noted are these: isolated perfused rat livers; cited from earlier work.
For series [6], the target named is T1, human A1 adenosine receptor (hA1R). In words: cAMP inhibition assay, direct agonist mode, in CHO-K1-hA1R cells (Cisbio cAMP Gi kit, forskolin co-stimulation). To be noted: 0.01 to 50 µM.
On the set-up of series [7]: method as in PMID 22411722. The conditions noted are these: rats; cited from earlier work.
Series [8] relates to ECV304 human cell line. Also noted: method as in PMID 18704879. To be noted: ECV304 in vitro BBB model; cited from earlier work.
Details of series [9]: method as in PMID 16220575. The conditions noted are these: human, oral 600 mg valerian extract; cited from earlier work.

Take `Nc1scc(-c2cccc(C(F)(F)F)c2)c1C(=O)c1ccccc1` [VCP 171, reference compound]: in [1], the “Logαβ (binding and activation cooperativity)” value (“Logαβ” below) is listed as −0.43; the “LogτB (operational efficacy as allosteric agonist)” value (shortened to “LogτB”) was found to be 0.42; the αβ worked out at 0.37; the τB is reported as 2.66. Moreover, in series [1], the Kb worked out at 9.38 µM and the Kd was 9.55 µM. In series [2], the “effect on binding affinity of orthosteric agonists” value is “enhanced the binding affinity of orthosteric agonists”. Moreover, in series [3], the “Logαβ” value was 1.11; the “LogτB” value is recorded as 0.3; the αβ was 12.73; the τB turned out to be 1.99. In series [3], the Kb is 10.8 µM and the Kd was 11 µM. Besides, the “effect on binding affinity of orthosteric agonists” value in [4] is reported as “enhanced the binding affinity of orthosteric agonists”.

For `COc1cc(C[C@]2(O)CO[C@@H](c3ccc(O)c(OC)c3)[C@@H]2CO)ccc1O` [Olivil, (−)-olivil], the “Allosteric modulation of adenosine-induced cAMP inhibition (shift of concentration-response curve)” value in series [1] is “no significant shift”.

On to `COc1cc(/C=C/C(=O)O)ccc1O` [Ferulic acid, trans-ferulic acid], for which the “Allosteric modulation of adenosine-induced cAMP inhibition (shift of concentration-response curve)” value in series [1] is listed as “no significant shift”.

As to `COc1ccc(/C=C/C(=O)O)cc1O` [Isoferulic acid, trans-isoferulic acid], the “Allosteric modulation of adenosine-induced cAMP inhibition (shift of concentration-response curve)” value in series [1] is reported as “no significant shift”.

`CC1=C2[C@H](/C=C(\C)C(=O)O)CC[C@@H](C)[C@H]2CC1` [Valerenic Acid, Valerenic acid]: in series [1], the “Logαβ” value is 0.68; the “LogτB” value came out at 0.77; the αβ was 4.79; the τB turned out to be 5.98. In series [1], the Kb was 244 µM. Further, the hepatic metabolism entry in [5] is “undergoes extensive hepatic metabolism, primarily through glucuronidation”. Further, in series [3], the “Logαβ” value is given as 1.36; the “LogτB” value is reported as 0.49; the αβ came out at 23.38; the τB came to 3.14. The same molecule showed a Kb in [3] of 17.4 µM. Also, in series [6], the “Intrinsic agonist activity: effect on forskolin-stimulated cAMP levels in the absence of adenosine” value is on record as “no significant reduction in cAMP levels”. In addition, in series [7], the oral bioavailability is listed as 33.7%. Besides, the “permeation of the BBB model relative to diazepam” value in series [8] is listed as “significantly slower than diazepam”. Moreover, in [9], the half-life entry is listed as “approximately 1.1 h” and the “peak plasma concentration of valerenic acid (molar)” value is reported as ~ 10 nM.

`CC1=C2[C@@H]([C@H](C)CC[C@H]2/C=C(\C)C(=O)O)[C@H](O)C1` [hydroxyvalerenic acid]: in series [8], the “permeation of the BBB model relative to diazepam” value is “significantly slower than diazepam”.

`COc1ccc([C@@H]2CC(=O)c3c(O)cc(O[C@@H]4O[C@H](CO[C@@H]5O[C@@H](C)[C@H](O)[C@@H](O)[C@H]5O)[C@@H](O)[C@H](O)[C@H]4O)cc3O2)cc1O` [Hesperidin]: the “Allosteric modulation of adenosine-induced cAMP inhibition (shift of concentration-response curve)” value in [1] is recorded as “slight leftward shift in the dose-response curve”.

Consider `COc1cc([C@H]2OC[C@H]3[C@@H]2CO[C@@H]3c2ccc(O)c(OC)c2)ccc1O` [Pinoresinol, (+)-pinoresinol], for which, in series [1], the “Logαβ” value came to 0.53; the αβ was found to be 3.42; the τB was 0.93; the Kb stood at 25.8 µM. Further, the Kd in [1] was 26.3 µM. Further, in series [3], the “Logαβ” value is −0.1; the “LogτB” value came out at 0.22; the αβ is listed as 0.79; the τB turned out to be 1.66. Further, in series [3], the Kb came out at 316 µM and the Kd was 316 µM. Moreover, the “Intrinsic agonist activity: effect on forskolin-stimulated cAMP levels in the absence of adenosine” value in [6] is “no significant reduction in cAMP levels”.

On to `CC(=O)O[C@@H]1CC(C)=C2[C@H]1[C@H](C)CC[C@H]2/C=C(\C)C(=O)O` [acetoxyvalerenic acid], for which the “permeation of the BBB model relative to diazepam” value in series [8] is reported as “significantly slower than diazepam”.

For `O=C(/C=C/c1ccc(O)c(O)c1)O[C@@H]1C[C@](O)(C(=O)O)C[C@@H](O)[C@H]1O` [Chlorogenic acid, chlorogenic acid], the “Allosteric modulation of adenosine-induced cAMP inhibition (shift of concentration-response curve)” value in [1] is “no significant shift”.

As for `COc1cc([C@H]2OC[C@](O)(Cc3ccc(O[C@@H]4O[C@H](CO)[C@@H](O)[C@H](O)[C@H]4O)c(OC)c3)[C@@H]2CO)ccc1O` [Olivil-4-O-glucoside, (−)-olivil 4′-O-glucoside], the “Allosteric modulation of adenosine-induced cAMP inhibition (shift of concentration-response curve)” value in [1] is “no significant shift”.

For `O=C(O)/C=C/c1ccc(O)cc1` [Coumaric acid, coumaric acid], in [1], the “Allosteric modulation of adenosine-induced cAMP inhibition (shift of concentration-response curve)” value was “no significant shift”.

On to `COc1cc([C@H]2OC[C@H]3[C@@H]2CO[C@@H]3c2ccc(O[C@@H]3O[C@H](CO)[C@@H](O)[C@H](O)[C@H]3O)c(OC)c2)ccc1O[C@@H]1O[C@H](CO)[C@@H](O)[C@H](O)[C@H]1O` [Pinoresinol diglucoside, pinoresinol-diglucoside], for which the “Allosteric modulation of adenosine-induced cAMP inhibition (shift of concentration-response curve)” value in series [1] is “no significant shift”.

Turning to `COc1cc([C@H]2OC[C@]3(O)[C@@H](c4ccc(O)c(OC)c4)OC[C@H]23)ccc1O` [8-Hydroxypinoresinol, 8-Hydroxy-pinoresinol], the “Allosteric modulation of adenosine-induced cAMP inhibition (shift of concentration-response curve)” value in series [1] is listed as “no significant shift”.

For the molecule `COc1cc([C@H]2OC[C@H]3[C@@H]2CO[C@@H]3c2ccc(O[C@@H]3O[C@H](CO)[C@@H](O)[C@H](O)[C@H]3O)c(OC)c2)ccc1O` [Pinoresinol-4-O-glucoside, pinoresinol-4-O-Glucoside], the “Allosteric modulation of adenosine-induced cAMP inhibition (shift of concentration-response curve)” value in series [1] is listed as “no significant shift”.
